In ChEMBL document CHEMBL1201862, “PubChem BioAssay data set” (2004):
Calls of active or inactive are those of the source.

Columns and labels:
[1] = molecular target: Cytochrome P450 2D6 (Homo sapiens, UniProt P10635);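 also: CYP2D6 member of a cytochrome P450 panel assay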
[2] = molecular target: T1, Cytochrome P450 1A2 (Homo sapiens, UniProt P05177);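 also: PubChem cytochrome P450 panel assay, CYP1A2 panel member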
T1 sequence (P05177 whole entry): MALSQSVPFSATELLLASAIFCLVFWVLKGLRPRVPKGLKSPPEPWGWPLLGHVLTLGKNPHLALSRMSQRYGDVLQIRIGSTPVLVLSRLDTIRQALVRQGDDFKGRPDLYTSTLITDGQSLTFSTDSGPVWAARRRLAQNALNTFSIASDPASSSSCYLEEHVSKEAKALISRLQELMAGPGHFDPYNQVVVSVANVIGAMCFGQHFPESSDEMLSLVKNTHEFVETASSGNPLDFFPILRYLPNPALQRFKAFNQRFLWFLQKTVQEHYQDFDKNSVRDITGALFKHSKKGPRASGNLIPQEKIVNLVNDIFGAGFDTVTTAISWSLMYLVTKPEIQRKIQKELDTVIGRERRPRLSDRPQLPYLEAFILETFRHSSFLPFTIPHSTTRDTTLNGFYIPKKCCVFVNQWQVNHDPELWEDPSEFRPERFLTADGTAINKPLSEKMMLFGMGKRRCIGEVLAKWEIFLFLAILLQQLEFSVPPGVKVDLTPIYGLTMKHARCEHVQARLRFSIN

[3] = molecular target: Cytochrome P450 2C19 (Homo sapiens, UniProt P33261); assay: Cytochrome panel assay with activity outcomes. Panel member name: p450-cyp2c19 Compounds with AC50 equal or less than 10 uM are considered active; type: functional; details: read-out: AC50
[4] = Luminescence Cell-Based Dose Confirmation HTS to Identify Inhibitors of Platelet Dense Granule Release. [Related pubchem assays: 1663 (Primary HTS), 1678 (Summary of Project)]; type: functional
[5] = molecular target: Luciferin 4-monooxygenase (Photinus pyralis, UniProt P08659); assay: firefly luciferase enzyme inhibitors, dose response, biochemical, luminescence (AID 1891)
[6] = test system: INS1; assay: beta cell apoptosis inhibitors, cytokine rescue, dose response, luminescence, retest (AID 449756); type: functional, cell-based; details: Rattus norvegicus;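 also: cell death triggered by IL-1 beta plus TNF-alpha plus IFN-gamma mixture; protective hits raise ATP signal compared with cytokine alone wells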
[7] = molecular target: Cytochrome P450 2C9 (Homo sapiens, UniProt P11712)
[8] = molecular target: Cytochrome P450 3A4 (Homo sapiens, UniProt P08684);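 also: CYP3A4 tested as one member of a cytochrome P450 panel screen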
[9] = molecular target: T2, Corticotropin-releasing factor receptor 2/Corticotropin-releasing factor-binding protein (Homo sapiens, UniProt P24387+Q13324); assay: activators of CRF receptor 2 with binding protein – uHTS hits, confirmation (AID 602473); type: functional; details: read-out: EC50_Mean
T2 sequence (Q13324 whole entry): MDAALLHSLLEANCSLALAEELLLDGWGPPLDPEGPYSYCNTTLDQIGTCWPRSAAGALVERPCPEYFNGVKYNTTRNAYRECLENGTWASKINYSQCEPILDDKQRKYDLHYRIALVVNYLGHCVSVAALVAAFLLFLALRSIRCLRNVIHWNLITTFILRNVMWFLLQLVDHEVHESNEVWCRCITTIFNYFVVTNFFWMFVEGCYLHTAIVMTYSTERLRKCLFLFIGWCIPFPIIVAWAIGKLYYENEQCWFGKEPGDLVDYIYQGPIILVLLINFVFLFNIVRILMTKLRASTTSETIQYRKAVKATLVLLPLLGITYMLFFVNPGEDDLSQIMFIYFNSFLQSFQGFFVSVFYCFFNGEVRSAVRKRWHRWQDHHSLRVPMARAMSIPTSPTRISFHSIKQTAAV
T2 sequence (P24387 whole entry): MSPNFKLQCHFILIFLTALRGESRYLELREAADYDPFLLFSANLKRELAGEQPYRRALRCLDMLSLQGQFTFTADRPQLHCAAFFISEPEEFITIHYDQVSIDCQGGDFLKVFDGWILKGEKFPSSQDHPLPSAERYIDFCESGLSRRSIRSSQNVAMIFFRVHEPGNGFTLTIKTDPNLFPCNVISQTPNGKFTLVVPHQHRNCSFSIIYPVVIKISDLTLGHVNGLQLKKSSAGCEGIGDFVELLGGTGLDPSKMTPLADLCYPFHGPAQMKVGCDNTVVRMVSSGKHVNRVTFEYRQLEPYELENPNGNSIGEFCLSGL

[10] = molecular target: T2, Corticotropin-releasing factor receptor 2/Corticotropin-releasing factor-binding protein; assay: Dose Response confirmation of uHTS hits for small molecule antagonists of the CRF-binding protein and CRF-R2 receptor complex.; type: functional; details: read-out: IC50_Mean
[11] = molecular target: T3, Heat shock factor protein 1 (Mus musculus, UniProt P38532); assay: inhibition of MG132-induced HSE-luciferase signal, confirmation, cell-based, NIH3T3, luminescence, dose retest (AID 2382); type: functional;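 also: NIH3T3 fibroblasts with HSF1-driven luciferase reporter stressed by proteasome inhibitor MG132; luminescence from HSF1-driven luciferase expression after 8 hours of MG132 stress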
T3 sequence (P38532 whole entry): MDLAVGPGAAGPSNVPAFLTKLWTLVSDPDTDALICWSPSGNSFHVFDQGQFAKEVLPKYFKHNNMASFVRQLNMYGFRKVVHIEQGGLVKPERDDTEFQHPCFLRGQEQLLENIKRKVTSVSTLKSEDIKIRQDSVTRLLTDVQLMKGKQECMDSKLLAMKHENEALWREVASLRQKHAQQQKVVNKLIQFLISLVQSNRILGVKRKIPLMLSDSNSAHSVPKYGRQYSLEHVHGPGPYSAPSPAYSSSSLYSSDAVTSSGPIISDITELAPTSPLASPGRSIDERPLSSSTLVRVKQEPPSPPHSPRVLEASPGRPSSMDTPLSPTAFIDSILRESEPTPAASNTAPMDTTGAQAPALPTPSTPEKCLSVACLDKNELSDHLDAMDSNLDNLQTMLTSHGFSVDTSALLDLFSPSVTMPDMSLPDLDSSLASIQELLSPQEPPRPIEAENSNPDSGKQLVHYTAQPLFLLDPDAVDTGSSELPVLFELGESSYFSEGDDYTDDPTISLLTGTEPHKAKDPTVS

[12] = cells; type: functional
[13] = inhibitors of intracellular T. cruzi replication, confirmation, NIH3T3 host cells, beta-gal luminescence (AID 2044); type: functional, cell-based;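 also: intracellular parasites grown in NIH/3T3 mouse fibroblasts as host cells; luminescent beta-galactosidase reporter signal from transgenic T. cruzi replicating inside host cells; inhibitors lower the luminescence signal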
[14] = Luminescence Cell-Based Dose Retest to Confirm Inhibitors of Cancer Stem Cells. [Related pubchem assays (depositor defined):AID2717, AID2721]; type: functional; details: Homo sapiens
[15] = cytotoxicity toward NIH3T3 fibroblasts, dose response, counter-screen, cell-based, ATP luminescence, mouse fibroblasts (AID 2010); type: functional;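 also: cells exposed to compound for about 90 hours before reading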

Chain of Cytochrome P450 2D6 (P10635 whole entry): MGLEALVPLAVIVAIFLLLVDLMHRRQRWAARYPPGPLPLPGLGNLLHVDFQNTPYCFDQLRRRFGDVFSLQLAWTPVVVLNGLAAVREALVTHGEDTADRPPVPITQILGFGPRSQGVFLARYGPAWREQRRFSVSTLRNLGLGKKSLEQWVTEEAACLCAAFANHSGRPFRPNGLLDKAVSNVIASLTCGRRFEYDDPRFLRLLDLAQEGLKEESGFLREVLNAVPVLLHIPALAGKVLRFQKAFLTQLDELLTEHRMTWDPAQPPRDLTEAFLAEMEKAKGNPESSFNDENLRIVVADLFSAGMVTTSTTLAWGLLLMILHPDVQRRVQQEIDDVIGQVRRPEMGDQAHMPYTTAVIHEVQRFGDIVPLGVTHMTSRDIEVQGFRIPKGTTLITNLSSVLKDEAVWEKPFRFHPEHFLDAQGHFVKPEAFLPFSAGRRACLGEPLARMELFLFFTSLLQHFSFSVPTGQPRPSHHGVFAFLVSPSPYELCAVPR
Chain of Luciferin 4-monooxygenase (P08659 whole entry): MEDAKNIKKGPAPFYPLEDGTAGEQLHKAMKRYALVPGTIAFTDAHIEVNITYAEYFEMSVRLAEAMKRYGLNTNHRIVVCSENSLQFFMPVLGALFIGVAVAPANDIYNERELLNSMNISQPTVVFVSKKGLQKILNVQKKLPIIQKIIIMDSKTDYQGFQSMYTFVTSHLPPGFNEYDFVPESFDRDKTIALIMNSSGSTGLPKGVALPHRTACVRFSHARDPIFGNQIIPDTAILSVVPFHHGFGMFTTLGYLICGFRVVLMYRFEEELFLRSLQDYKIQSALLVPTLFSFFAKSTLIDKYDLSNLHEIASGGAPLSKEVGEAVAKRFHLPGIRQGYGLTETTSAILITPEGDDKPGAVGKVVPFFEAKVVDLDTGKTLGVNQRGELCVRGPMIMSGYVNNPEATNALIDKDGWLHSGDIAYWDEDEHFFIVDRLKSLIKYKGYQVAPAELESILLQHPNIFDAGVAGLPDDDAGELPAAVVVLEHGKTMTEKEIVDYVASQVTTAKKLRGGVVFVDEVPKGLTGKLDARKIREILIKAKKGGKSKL
Chain of Cytochrome P450 2C19 (P33261 whole entry): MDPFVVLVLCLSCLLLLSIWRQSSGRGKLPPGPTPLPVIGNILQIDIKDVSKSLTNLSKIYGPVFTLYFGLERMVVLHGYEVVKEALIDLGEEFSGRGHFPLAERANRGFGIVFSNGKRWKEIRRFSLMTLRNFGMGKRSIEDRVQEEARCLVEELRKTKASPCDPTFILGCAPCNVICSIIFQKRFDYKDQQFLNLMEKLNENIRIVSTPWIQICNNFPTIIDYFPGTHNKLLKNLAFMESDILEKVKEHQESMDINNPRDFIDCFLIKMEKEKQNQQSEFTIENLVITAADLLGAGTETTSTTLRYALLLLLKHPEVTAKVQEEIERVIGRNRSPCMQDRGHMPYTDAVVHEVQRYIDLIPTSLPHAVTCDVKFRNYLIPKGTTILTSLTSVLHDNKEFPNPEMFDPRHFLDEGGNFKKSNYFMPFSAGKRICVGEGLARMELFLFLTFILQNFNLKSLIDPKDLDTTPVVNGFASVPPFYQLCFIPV
Chain of Cytochrome P450 2C9 (P11712 whole entry): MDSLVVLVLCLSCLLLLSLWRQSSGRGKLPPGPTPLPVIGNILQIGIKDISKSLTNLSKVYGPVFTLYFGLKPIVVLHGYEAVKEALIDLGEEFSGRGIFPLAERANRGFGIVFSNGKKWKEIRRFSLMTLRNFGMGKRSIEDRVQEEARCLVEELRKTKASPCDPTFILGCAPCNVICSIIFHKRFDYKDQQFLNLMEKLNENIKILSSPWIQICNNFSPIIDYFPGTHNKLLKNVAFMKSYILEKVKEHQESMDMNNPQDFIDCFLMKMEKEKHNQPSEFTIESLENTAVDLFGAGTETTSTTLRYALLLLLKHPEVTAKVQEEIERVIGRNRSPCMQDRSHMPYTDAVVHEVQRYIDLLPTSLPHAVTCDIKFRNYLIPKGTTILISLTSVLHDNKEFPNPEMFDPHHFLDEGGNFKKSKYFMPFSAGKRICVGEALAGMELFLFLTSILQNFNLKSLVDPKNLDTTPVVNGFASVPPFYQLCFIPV
Chain of Cytochrome P450 3A4 (P08684 whole entry): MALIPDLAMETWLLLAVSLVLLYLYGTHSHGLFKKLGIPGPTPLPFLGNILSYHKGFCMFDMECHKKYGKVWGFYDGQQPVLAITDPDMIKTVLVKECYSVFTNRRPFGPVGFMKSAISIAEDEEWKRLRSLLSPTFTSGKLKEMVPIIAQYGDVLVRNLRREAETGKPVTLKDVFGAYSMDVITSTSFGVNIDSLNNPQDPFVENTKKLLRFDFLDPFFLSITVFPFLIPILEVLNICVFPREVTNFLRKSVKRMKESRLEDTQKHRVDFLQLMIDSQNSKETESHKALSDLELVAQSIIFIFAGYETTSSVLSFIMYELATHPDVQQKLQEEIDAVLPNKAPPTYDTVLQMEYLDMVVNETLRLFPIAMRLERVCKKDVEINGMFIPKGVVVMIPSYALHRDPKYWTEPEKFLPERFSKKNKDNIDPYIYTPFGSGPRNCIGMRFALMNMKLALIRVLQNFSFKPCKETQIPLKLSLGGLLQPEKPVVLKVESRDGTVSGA

## O=C(Cn1cc(C(F)(F)F)ccc1=O)N1CCN(S(=O)(=O)c2ccccc2)CC1
[1]
  AC50: 11.2 µM (inconclusive)
[2]
  AC50: 39.8 µM (inconclusive)
[3]
  AC50: 31.6 µM (inconclusive)

## COc1cc2sc3ccc(C#CC4(O)CCCCC4)cc3c(=O)c2cc1OC
[4]
  EC50: 4.69 µM (active)
[5]
  EC50: 2.35 µM (active)

## N=C(NOC(=O)c1ccc(Cl)cc1Cl)c1ccccn1
[6]
  AC50: 30 µM (active)
[4]
  EC50: 3.11 µM (active)
[5]
  EC50: 1.05 µM (active)

## Cc1cccc(NC(=O)C2CCCN(C(=O)NC3CCCCC3)C2)c1C (centres undefined)
[4]
  EC50: > 112 µM (not active)
[5]
  EC50: > 112 µM (not active)

## COc1ccc(CN=C(S)NNC(=O)c2cc3ccccc3o2)cc1
[4]
  EC50: > 112 µM (not active)
[5]
  EC50: > 112 µM (not active)

## CCOc1c2ccc(C(=O)N[C@H](C)C3CCCCC3)cc2nn1CC
[1]
  AC50: 10 µM (inconclusive)
[7]
  AC50: 14.1 µM (inconclusive)
[2]
  AC50: 12.6 µM (inconclusive)
[8]
  AC50: 25.1 µM (inconclusive)
[3]
  AC50: 28.2 µM (inconclusive)

## COc1ccc(O[C@H]2C=C[C@@H](c3ccccc3)O[C@H]2CO/N=C2/[C@H]3O[C@@H]3[C@@H](O)[C@H]3[C@H]2CCn2c(=O)n(-c4ccccc4)c(=O)n23)cc1
[1]
  AC50: 3.98 µM (inconclusive)
[7]
  AC50: 2 µM (inconclusive)

## COc1cccc(Oc2ccc(OC)cc2C(=O)O)c1
[9]
  EC50: > 53 µM (inactive)
[10]
  IC50: > 47.1 µM (inactive)

## CCN(CC(=O)Nc1ccccc1OC)C(=O)Cn1cnc2ccccc2c1=O
[4]
  EC50: > 112 µM (not active)
[5]
  EC50: > 112 µM (not active)

## CC(Oc1ccccc1Cl)C(=O)Nc1ccc(S(=O)(=O)N2CCCC2)cc1 (centres undefined)
[4]
  EC50: > 112 µM (not active)
[5]
  EC50: 32 µM (active)

## Cc1cc(C)nc(NC(=O)c2ccc(C)c([N+](=O)[O-])c2)n1
[11]
  EC50: > 195 µM (not active)

## COc1ccc(-n2cc([N+](=O)[O-])c(=O)c3ccc(Cl)cc32)cc1
[11]
  EC50: > 195 µM (not active)

## CC(C)Cn1c(N2CCN(C(=O)/C=C/c3ccccc3)CC2)nc2ccccc21
[11]
  EC50: > 195 µM (not active)

## ClCCNc1nc2cc(Cl)ccc2[nH]1
[1]
  AC50: 6.31 µM (inconclusive)
[7]
  AC50: 4.47 µM (inconclusive)
[3]
  AC50: 15.8 µM (inconclusive)

## O=C(NCCc1csc(-c2ccccc2)n1)c1c(F)cccc1Cl
[9]
  EC50: > 53 µM (inactive)
[10]
  IC50: > 47.1 µM (inactive)

## O=C(Nc1ccc(Cl)c(Cl)c1)N1CCC(N2CCCCC2)CC1
[1]
  AC50: 10 µM (inconclusive)
[8]
  AC50: 22.4 µM (inconclusive)
[3]
  AC50: 39.8 µM (inconclusive)

## Cc1cc(NC(=O)c2c(Cl)cccc2Cl)no1
[4]
  EC50: > 112 µM (not active)
[5]
  EC50: > 112 µM (not active)

## Nc1nc(O)cc(Nc2ccccc2Cl)n1
[9]
  EC50: > 53 µM (inactive)
[10]
  IC50: > 47.1 µM (inactive)

## O=C(NCC1CCCO1)C1c2ccccc2C(=O)N1Cc1ccc2c(c1)OCO2 (centres undefined)
[1]
  AC50: 15.8 µM (inconclusive)
[7]
  AC50: 11.2 µM (inconclusive)
[2]
  AC50: 15.8 µM (inconclusive)

## O=C(OCn1nnc2ccccc2c1=O)C1CCCCC1
[12]
  IC50: 6.75 µM (active)

## CCSc1nnc([C@@H](N)Cc2c[nH]c3ccccc23)o1
[1]
  AC50: 12.6 µM (inconclusive)
[2]
  AC50: 17.8 µM (inconclusive)

## CC1COc2ccccc2N1C(=O)c1ccc(F)cc1 (centres undefined)
[11]
  EC50: > 195 µM (not active)

## O=C(Nc1ccccn1)c1ccc(C(=O)c2ccccc2)cc1
[12]
  IC50: 32.6 µM (active)

## O=C(O)/C=C/C(=O)Nc1cc(F)ccc1F
[11]
  EC50: 35.9 µM (active)

## CCOC(=O)c1c(C)[nH]c(C(=O)C(C)OC(=O)c2oc3ccccc3c2COC)c1C (centres undefined)
[4]
  EC50: 5.48 µM (active)
[5]
  EC50: > 112 µM (not active)

## CCOC(=S)SCC(=O)Nc1nccs1
[4]
  EC50: 21.6 µM (active)
[5]
  EC50: > 112 µM (not active)

## COCC(C)n1c(C)cc(C(=O)CSc2nnc(Nc3ccccc3F)s2)c1C (centres undefined)
[1]
  AC50: 25.1 µM (inconclusive)
[2]
  AC50: 28.2 µM (inconclusive)

## CCOC(=O)c1cc(NC(=O)Nc2cc(C)ccn2)c(C)nc1C
[9]
  EC50: > 53 µM (inactive)
[10]
  IC50: > 47.1 µM (inactive)

## SC1=NCN(CCc2ccccc2)CN1Cc1ccccc1
[9]
  EC50: > 53 µM (inactive)
[10]
  IC50: > 47.1 µM (inactive)

## CN1CCC(O)(c2ccc(Cl)cc2)C(C(=O)c2ccc(Cl)cc2)C1 (centres undefined)
[12]
  IC50: 38.5 µM (active)

## OC(c1ccccc1)(c1ccccc1)C1CCCN1 (centres undefined)
[1]
  AC50: 25.1 µM (inconclusive)
[3]
  AC50: 1.41 µM (inconclusive)

## Cc1ccc(NS(=O)(=O)c2ccc(Cl)c(C(=O)Nc3ccccc3-c3nc4ccccc4[nH]3)c2)cc1C
[13]
  EC50: 2.49 µM (active)
[14]
  AC50: 0.647 µM (active)
[4]
  EC50: > 112 µM (not active)
[5]
  EC50: > 112 µM (not active)
[15]
  EC50: < 6 µM (inconclusive)

## CC(C)(C)NC[C@H](O)c1ccccc1Cl
[1]
  AC50: 31.6 µM (inconclusive)

## CC(=O)c1c(C)n(CCCOC(C)C)c2ccc(O)cc12
[11]
  EC50: > 195 µM (not active)

## OCCOCCN1CCN(C(S)=Nc2ccccc2)CC1
[9]
  EC50: > 53 µM (inactive)
[10]
  IC50: > 47.1 µM (inactive)

## Cc1cc(C)n2nc(CC(=O)NNC(=O)c3ccccc3Cl)nc2n1
[9]
  EC50: > 53 µM (inactive)
[10]
  IC50: > 47.1 µM (inactive)

## CC(=O)C1=C(O)C(=O)N(Cc2ccccc2)C1c1ccc(F)cc1 (centres undefined)
[9]
  EC50: > 53 µM (inactive)
[10]
  IC50: > 47.1 µM (inactive)

## COc1cc(/C=N/NC(=O)c2ccccn2)ccc1OC(=O)c1cccs1
[12]
  IC50: 10.5 µM (active)

## COc1ccc(/C=N/NC(=O)c2ccncc2)cc1CN1CCOCC1
[12]
  IC50: 0.64 µM (active)

## O=C(N/N=C/c1cccc(OCc2ccccc2)c1)c1cccs1
[1]
  AC50: 25.1 µM (inconclusive)
[8]
  AC50: 20 µM (inconclusive)
